Results on five molecules are retold here after patent US20260250325A1, “Antiviral Polypeptide Membrane Fusion Inhibitor, and Preparation Method and Application Thereof” (priority 2025, published 2026).

In one series the test system is RSV A long virus strain. Format: cell-based. The method, then:
In this embodiment, an RSV-A long virus strain was used as an infection virus in the present disclosure. The anti-RSV activity of the synthesized polypeptide was determined through CPE detection.
The inhibitory activity of the compounds of Table 1-1-Table 1-5, positive polypeptide in Table 1-11, and positive control T-118 against the RSV-A long virus strain was detected.
(§1) Human Epithelial Pharyngeal Carcinoma Cells (HEp-2) were from the American Type Culture Collection (ATCC), with a catalog number CCL-23. The cells were cultured in a DMEM culture solution in which 10% fetal bovine serum, 1% sodium pyruvate, 1% nonessential amino acids, 2 mM glutamine, 100 U/mL penicillin, and 100 μg/mL streptomycin were added. The RSV A long virus strain was from the ATCC, with a catalog number VR-26.
This study used a plaque reduction experiment to detect the in-vitro activity of a test sample against the RSV A long virus strain. The test sample and a control compound were tested at 8 concentrations in duplicated wells. The HEp-2 cells were digested with trypsin and then diluted to a concentration of 300,000 cells per milliliter by using an experimental culture solution. The diluted cells were added to a 96-well cell test board, with 100 μL per well, corresponding to 30000 cells per well. The cells were cultured overnight in a 37° C. incubator with 5% CO2. On the second day, the test sample was diluted in an experimental culture medium at a fold ratio. The sample diluted at a fold ratio and an equal volume of virus (100 PFU per well) were well mixed and incubated at 37° C. in 5% CO2 for 1 h. Then, the culture solution in the 96-well cell test board was discarded, the sample virus mixed solution (200 μL) was added to the 96-well cell culture plate, and incubated at 37° C. in 5% CO2 for 2 hours. After 2 h, the sample virus mixed solution was discarded, and 200 μL of maintenance culture medium containing 0.8% CMC and the corresponding concentration of the test sample was added. A cell control (cells, without compound treatment or viral infection) and a viral control (cell infection virus, without compound treatment) were set. The cells were cultured for 1 day in the 37° C. incubator with 5% CO2. One day after viral infection, the culture medium was discarded, the cells were fixed with 4% paraformaldehyde, and then permeabilization was performed with 0.5% Triton X-100. After the plate was washed with DPBS, an RSV-specific antibody (RSV antibody, diluted 1:3000) was added and incubated at 37° C. for 1 h. Then, a secondary antibody (donkey anti-goat IgG, diluted 1:500) and incubated at 37° C. for 1 h. The secondary antibody was discarded, a TrueBlue solution was added, dyeing was performed for 10 min; and the plate was washed with running water and then air-dried, and the number of spots in each well was counted by using a microplate imaging counter. Raw data was used for calculating the antiviral activity of the samples.
(§2) The raw data for plaque counts and cell viability tests were used for analyzing the antiviral activity and cytotoxicity of the test samples, respectively. A calculation formula was shown as follows.
% inhibition rate=100−(sample value-cell control average value)/(virus control average value-cell control average value)×100%
(§3) Non-linear fitting analysis was performed on the inhibition rate of the sample by using GraphPad Prism (version 10), so as to calculate the IC50 and CC50 values for the sample.
IC50: in an in-vitro antiviral activity experiment, IC50 represented an inhibition ability indicator of a compound to be tested against the Hep-2 cells infected by the RSV A long virus strain.

The nature of series [1]: Cytotoxicity test in HEp-2 cells (CCK8 cell viability). The conditions noted are these: human. The series is classed as cell-based. The method, then:
as §1
A cytotoxicity test and an antiviral test were performed in parallel. The HEp-2 cells were inoculated in the microplate at a density of 30,000 cells per well, and cultured overnight in the 37° C. incubator with 5% CO2. On the next day, the diluted test sample was added. The cell control (cells, without compound treatment) and a culture solution control (culture solution only, without cell or compound treatment) were set. A final concentration of DMSO in the culture solution was 0.5%. The cells were cultured for 1 day in the 37° C. incubator with 5% CO2. Cell viability was detected by using a cell viability detection kit CCK8.
as §2
cell survival rate=(sample value-culture medium control average value)/(cell control average value-culture medium control average value)×100
as §3
CC50: in the in-vitro antiviral activity experiment, CC50 was used to measure the toxicity of the compound to be tested to the Hep-2 cells. To be precise, when the compound to be tested was at a specific concentration, 50% of the Hep-2 cells was caused to die, and this concentration was defined as the CC50. A fitting formula was log (inhibitor) vs. response-Variable slope (four parameters).

Setting [2] is: HEp-2 cells, CCK8, 1 day, read-out: CC50.

Where two headings read alike, the source gives them in different places. Where a SMILES comes first, the peptide text is derived from it. [ ]: non-standard residue; d: D form. The star is where a group is joined. ξ: configuration not given here. Succinyl(4-O-cholesteryl) = CC(C)CCC[C@@H](C)[C@H]1CC[C@H]2[C@@H]3CC=C4C[C@@H](OC(=O)CCC(=O)*)CC[C@]4(C)[C@H]3CC[C@]12C; ξD = NC(CC(=O)O)C(=O)O

For the molecule `CC[C@H](C)[C@H](NC(=O)[C@H](CO)NC(=O)[C@H](C)NC(=O)[C@H](CC(=O)O)NC(=O)[C@H](Cc1ccccc1)NC(C)=O)C(=O)N[C@@H](CCC(=O)O)C(=O)N[C@@H](CCC(=O)O)C(=O)N[C@H](C(=O)N[C@@H](CC(N)=O)C(=O)N[C@@H](CCCNC(=N)N)C(=O)N[C@@H](CCCNC(=N)N)C(=O)N[C@H](C(=O)N[C@@H](CCC(=O)O)C(=O)N[C@@H](CCC(=O)O)C(=O)N[C@@H](CO)C(=O)N[C@@H](CC(C)C)C(=O)N[C@@H](CCCNC(=N)N)C(=O)N[C@@H](CCCNC(=N)N)C(=O)N[C@H](C(=O)N[C@@H](CCC(=O)O)C(=O)N[C@@H](CCC(=O)O)C(=O)N[C@@H](CO)C(=O)N[C@@H](CC(=O)O)C(=O)N[C@@H](CCCNC(=N)N)C(=O)N[C@@H](CCCNC(=N)N)C(=O)N[C@@H](CC(C)C)C(=O)N[C@@H](CCC(=O)O)C(=O)N[C@H](C(=O)N[C@@H](CC(N)=O)C(=O)N[C@@H](CCCCN)C(=O)N[C@@H](CCCCN)C(=O)N[C@@H](C)C(N)=O)C(C)C)[C@@H](C)CC)[C@@H](C)CC)C(C)C` [Compound 1] (Ac-FDASIEEVNRRIEESLRRIEESDRRLEVNKKA-NH2), the IC50 (commonly the point on the concentration scale where inhibition reaches its midpoint) in the series on RSV A long virus strain turned out to be 1.36 µM. Moreover, the half-maximal cytotoxic concentration (CC50) – broadly, the concentration at which the toxic effect on the cells reaches its halfway point – at 1 day in series [1] was over 8 µM. `CC[C@H](C)[C@H](NC(=O)[C@H](CCCCN)NC(=O)[C@H](CCCCN)NC(=O)[C@H](CC(C)C)NC(=O)[C@@H](NC(=O)[C@H](CCC(=O)O)NC(=O)[C@H](CCC(=O)O)NC(=O)[C@@H](NC(=O)[C@H](CCCCN)NC(=O)[C@H](CCC(=O)O)NC(=O)[C@H](CC(N)=O)NC(=O)[C@@H](NC(=O)[C@H](CCC(=O)O)NC(=O)[C@H](CC(N)=O)NC(=O)[C@@H](NC(=O)[C@H](CCCCN)NC(=O)[C@H](CCC(N)=O)NC(=O)[C@H](CC(N)=O)NC(=O)[C@H](Cc1ccccc1)NC(=O)[C@H](CCC(=O)O)NC(=O)[C@H](CC(=O)O)NC(=O)[C@H](CC(=O)O)NC(C)=O)[C@@H](C)CC)C(C)C)[C@@H](C)CC)[C@@H](C)CC)C(=O)N[C@@H](CCC(=O)O)C(=O)N[C@@H](CCC(=O)O)C(=O)N[C@@H](CO)C(=O)N[C@@H](CC(=O)O)C(=O)N[C@@H](CCCNC(=N)N)C(=O)N[C@@H](CCCCN)C(=O)N[C@@H](CC(C)C)C(=O)N[C@@H](CCC(=O)O)C(=O)N[C@@H](CCC(=O)O)C(=O)N[C@@H](CO)C(=O)N[C@@H](CC(=O)O)C(=O)N[C@@H](CCCCN)C(=O)N[C@@H](CCCCN)C(=O)N[C@@H](C)C(N)=O` [Compound 2] (Ac-DDEFNQKINEVNEKIEEILKKIEESDRKLEESDKKA-NH2): the half-maximal inhibitory concentration (IC50) in the series on RSV A long virus strain was over 8 µM. Also, the CC50 at 1 day in series [1] was over 8 µM.

`CC[C@H](C)[C@H](NC(=O)[C@H](CCCCN)NC(=O)[C@H](CCCCN)NC(=O)[C@H](CC(C)C)NC(=O)[C@H](CO)NC(=O)[C@H](CCC(=O)O)NC(=O)[C@H](CCC(=O)O)NC(=O)[C@@H](NC(=O)[C@H](CCCCN)NC(=O)[C@H](CCCCN)NC(=O)[C@H](CC(N)=O)NC(=O)[C@@H](NC(=O)[C@H](CCC(=O)O)NC(=O)[C@H](CCC(=O)O)NC(=O)[C@@H](NC(=O)[C@H](CCCCN)NC(=O)[C@H](CCCCN)NC(=O)[C@H](CCCCN)NC(=O)[C@H](CC(=O)O)NC(=O)[C@H](Cc1ccccc1)NC(=O)[C@H](CCC(=O)O)NC(=O)[C@H](CC(=O)O)NC(C)=O)[C@@H](C)CC)C(C)C)[C@@H](C)CC)C(=O)N[C@@H](CCC(=O)O)C(=O)N[C@@H](CCC(=O)O)C(=O)N[C@@H](CO)C(=O)N[C@@H](CC(=O)O)C(=O)N[C@@H](CCCCN)C(=O)N[C@@H](CCCCN)C(=O)N[C@@H](CC(C)C)C(=O)N[C@@H](CCC(=O)O)C(=O)N[C@@H](CCC(=O)O)C(=O)N[C@H](C(N)=O)C(C)C` [Compound 3] (Ac-DEFDKKKIEEVNKKIEESLKKIEESDKKLEEV-NH2): the IC50 in the series with RSV A long virus strain (RSV A long virus strain, HEp-2 cells, plaque reduction, 1 day, read-out: IC50) came to 4.43 µM. The CC50 at 1 day in series [1] (setting [2]) was over 8 µM. Turning to `CC[C@H](C)[C@H](NC(=O)[C@H](CCCCN)NC(=O)[C@H](CCCCN)NC(=O)[C@H](CC(C)C)NC(=O)[C@H](CO)NC(=O)[C@H](CCC(=O)O)NC(=O)[C@H](CCC(=O)O)NC(=O)[C@@H](NC(=O)[C@H](CCCCN)NC(=O)[C@H](CCCCN)NC(=O)[C@H](CC(N)=O)NC(=O)[C@@H](NC(=O)[C@H](CCC(=O)O)NC(=O)[C@H](CCC(=O)O)NC(=O)[C@@H](NC(=O)[C@H](CCCCN)NC(=O)[C@H](CCCCN)NC(=O)[C@H](CCCCN)NC(=O)[C@H](CC(=O)O)NC(=O)[C@H](Cc1ccccc1)NC(=O)[C@H](CCC(=O)O)NC(=O)C(CC(=O)O)NC(C)=O)[C@@H](C)CC)C(C)C)[C@@H](C)CC)C(=O)N[C@@H](CCC(=O)O)C(=O)N[C@@H](CCC(=O)O)C(=O)N[C@@H](CO)C(=O)N[C@@H](CC(=O)O)C(=O)N[C@@H](CCCCN)C(=O)N[C@@H](CCCCN)C(=O)N[C@@H](CC(C)C)C(=O)N[C@@H](CCC(=O)O)C(=O)N[C@@H](CCC(=O)O)C(=O)N[C@H](C(=O)NCC(=O)N[C@@H](CO)C(=O)NCC(=O)N[C@@H](CO)C(=O)NCC(=O)N[C@@H](CCCCNC(=O)CCC(=O)O[C@H]1CC[C@@]2(C)C(=CC[C@H]3[C@@H]4CC[C@H]([C@H](C)CCCC(C)C)[C@@]4(C)CC[C@@H]32)C1)C(N)=O)C(C)C` (some centres unmarked) [Compound 18] (Ac-[ξD]EFDKKKIEEVNKKIEESLKKIEESDKKLEEVGSGSGK(Succinyl(4-O-cholesteryl))-NH2), the 50% cytotoxic concentration (CC50) at 1 day in series [1] (setting [2]) is 6.4 µM. The same measure, in the same setting: as for `CC[C@H](C)[C@H](NC(=O)[C@H](CCCCN)NC(=O)[C@H](CCCCN)NC(=O)[C@H](CC(C)C)NC(=O)[C@H](CO)NC(=O)[C@H](CCC(=O)O)NC(=O)[C@H](CCC(=O)O)NC(=O)[C@@H](NC(=O)[C@H](CCCCN)NC(=O)[C@H](CCCCN)NC(=O)[C@H](CC(N)=O)NC(=O)[C@@H](NC(=O)[C@H](CCC(=O)O)NC(=O)[C@H](CCC(=O)O)NC(=O)[C@@H](NC(=O)[C@H](CCCCN)NC(=O)[C@H](CCCCN)NC(=O)[C@H](CCCCN)NC(=O)[C@H](CC(=O)O)NC(=O)[C@H](Cc1ccccc1)NC(=O)[C@H](CCC(=O)O)NC(=O)[C@H](CC(=O)O)NC(C)=O)[C@@H](C)CC)C(C)C)[C@@H](C)CC)C(=O)N[C@@H](CCC(=O)O)C(=O)N[C@@H](CCC(=O)O)C(=O)N[C@@H](CO)C(=O)N[C@@H](CC(=O)O)C(=O)N[C@@H](CCCCN)C(=O)N[C@@H](CCCCN)C(=O)N[C@@H](CC(C)C)C(=O)N[C@@H](CCC(=O)O)C(=O)N[C@@H](CCC(=O)O)C(=O)N[C@H](C(=O)N[C@@H](CCC(=O)O)C(=O)N[C@@H](C)C(=O)N[C@@H](C)C(=O)N[C@@H](C)C(=O)N[C@@H](CCCCN)C(=O)N[C@@H](CCCCNC(=O)CCC(=O)O[C@H]1CC[C@@]2(C)C(=CC[C@H]3[C@@H]4CC[C@H]([C@H](C)CCCC(C)C)[C@@]4(C)CC[C@@H]32)C1)C(N)=O)C(C)C` [Compound 22] (Ac-DEFDKKKIEEVNKKIEESLKKIEESDKKLEEVEAAAKK(Succinyl(4-O-cholesteryl))-NH2), the figure is 3.7 µM.
